Patent US20240166617A1, “PHOSPHOINOSITIDE 3 KINASE BETA INHIBITORS AND COMPOSITIONS AND METHODS THEREOF” (Geode Therapeutics Inc., priority 2021, published 2024)
Read-outs that look alike come from different tables or passages of the source.

Key:
[1] = test system: phosphorylation of AKT in HCC70 cells; assay: Cellular assay: phosphorylation of AKT in HCC70 cells (western blotting); type: cell-based; settings: Homo sapiens, HCC70, 1 h, HCC70 cells, compound 500 nM, 60 min, inhibition of Akt activity from band intensities
How it was run: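 HCC70 cells treated with compound at 500 nM (0.1% DMSO control) for 60 min at 37 °C; pAKT Ser473 and Thr308 plus total AKT measured by western blot with fluorescent detection. Inhibition from band intensities, binned as + (20–60%), ++ (60–80%), +++ (80–90%), ++++ (>90%).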

PIK3Ca_h = target: T1, PIK3Ca_h (Homo sapiens, UniProt P42336); assay: Enzyme binding assay (KINOMEscan); settings: Eurofins DiscoveRx
T1 construct: purchased Eurofins DiscoveRx Corporation
Description: (§1) Kinase enzyme binding affinities of compounds disclosed herein were determined using the KINOMEscan technology performed by Eurofins DiscoveRx Corporation, San Diego, California, USA (www.eurofinsdiscoveryservices.com). Table 2 reports the obtained PIK3β Kd values (nM) of, with the PIK3β Kd being the inhibitor binding constant. Table 3 reports the obtained Kd values (nM), with the Kd being the inhibitor binding constant: […]

PIK3Cb_h = target: T2, PIK3Cb_h (Homo sapiens, UniProt P42338); assay: Enzyme binding assay (KINOMEscan); settings: Eurofins DiscoveRx
T2 construct: purchased Eurofins DiscoveRx Corporation
Description: as §1

PIK3Cd_h = target: T3, PIK3Cd_h (Homo sapiens, UniProt O00329); assay: Enzyme binding assay (KINOMEscan); settings: Eurofins DiscoveRx
T3 construct: purchased Eurofins DiscoveRx Corporation
T3 sequence (O00329 1-1044): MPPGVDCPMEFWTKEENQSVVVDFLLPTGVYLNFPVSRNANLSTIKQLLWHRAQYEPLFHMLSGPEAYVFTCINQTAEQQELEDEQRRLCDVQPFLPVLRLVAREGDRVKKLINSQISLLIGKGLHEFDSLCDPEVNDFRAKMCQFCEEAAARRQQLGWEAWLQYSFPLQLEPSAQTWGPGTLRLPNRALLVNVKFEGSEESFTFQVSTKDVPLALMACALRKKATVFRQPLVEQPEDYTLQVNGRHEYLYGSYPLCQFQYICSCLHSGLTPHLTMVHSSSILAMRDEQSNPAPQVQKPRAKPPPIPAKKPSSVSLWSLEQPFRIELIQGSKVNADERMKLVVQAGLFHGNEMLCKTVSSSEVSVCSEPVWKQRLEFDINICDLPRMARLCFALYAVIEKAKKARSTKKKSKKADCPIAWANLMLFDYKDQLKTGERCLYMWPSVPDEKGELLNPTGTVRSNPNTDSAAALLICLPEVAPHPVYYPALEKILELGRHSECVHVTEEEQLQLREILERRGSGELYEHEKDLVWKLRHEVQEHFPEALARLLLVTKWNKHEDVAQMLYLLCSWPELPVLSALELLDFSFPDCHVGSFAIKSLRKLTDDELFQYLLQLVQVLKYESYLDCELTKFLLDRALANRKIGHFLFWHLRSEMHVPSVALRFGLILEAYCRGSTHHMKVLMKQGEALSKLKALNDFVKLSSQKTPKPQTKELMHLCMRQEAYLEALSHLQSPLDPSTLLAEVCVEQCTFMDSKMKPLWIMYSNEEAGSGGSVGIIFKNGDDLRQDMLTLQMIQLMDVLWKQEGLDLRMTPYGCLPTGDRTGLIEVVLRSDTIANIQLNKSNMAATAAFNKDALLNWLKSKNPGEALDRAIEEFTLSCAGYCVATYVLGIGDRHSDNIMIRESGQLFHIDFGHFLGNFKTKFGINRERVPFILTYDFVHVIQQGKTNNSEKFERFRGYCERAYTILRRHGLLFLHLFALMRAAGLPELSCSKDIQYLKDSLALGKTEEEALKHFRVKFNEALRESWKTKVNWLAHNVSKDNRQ
Description: as §1

PIK3Cg_h = target: T4, PIK3Cg_h (Homo sapiens, UniProt P48736); assay: Enzyme binding assay (KINOMEscan); settings: Eurofins DiscoveRx
T4 construct: purchased Eurofins DiscoveRx Corporation
Description: as §1

[2] = read-out: Index of AI (HCC70) p-AKT Thr 308
[3] = read-out: Index of AI (HCC70) p-AKT ser 473

T2 sequence (P42338 whole entry): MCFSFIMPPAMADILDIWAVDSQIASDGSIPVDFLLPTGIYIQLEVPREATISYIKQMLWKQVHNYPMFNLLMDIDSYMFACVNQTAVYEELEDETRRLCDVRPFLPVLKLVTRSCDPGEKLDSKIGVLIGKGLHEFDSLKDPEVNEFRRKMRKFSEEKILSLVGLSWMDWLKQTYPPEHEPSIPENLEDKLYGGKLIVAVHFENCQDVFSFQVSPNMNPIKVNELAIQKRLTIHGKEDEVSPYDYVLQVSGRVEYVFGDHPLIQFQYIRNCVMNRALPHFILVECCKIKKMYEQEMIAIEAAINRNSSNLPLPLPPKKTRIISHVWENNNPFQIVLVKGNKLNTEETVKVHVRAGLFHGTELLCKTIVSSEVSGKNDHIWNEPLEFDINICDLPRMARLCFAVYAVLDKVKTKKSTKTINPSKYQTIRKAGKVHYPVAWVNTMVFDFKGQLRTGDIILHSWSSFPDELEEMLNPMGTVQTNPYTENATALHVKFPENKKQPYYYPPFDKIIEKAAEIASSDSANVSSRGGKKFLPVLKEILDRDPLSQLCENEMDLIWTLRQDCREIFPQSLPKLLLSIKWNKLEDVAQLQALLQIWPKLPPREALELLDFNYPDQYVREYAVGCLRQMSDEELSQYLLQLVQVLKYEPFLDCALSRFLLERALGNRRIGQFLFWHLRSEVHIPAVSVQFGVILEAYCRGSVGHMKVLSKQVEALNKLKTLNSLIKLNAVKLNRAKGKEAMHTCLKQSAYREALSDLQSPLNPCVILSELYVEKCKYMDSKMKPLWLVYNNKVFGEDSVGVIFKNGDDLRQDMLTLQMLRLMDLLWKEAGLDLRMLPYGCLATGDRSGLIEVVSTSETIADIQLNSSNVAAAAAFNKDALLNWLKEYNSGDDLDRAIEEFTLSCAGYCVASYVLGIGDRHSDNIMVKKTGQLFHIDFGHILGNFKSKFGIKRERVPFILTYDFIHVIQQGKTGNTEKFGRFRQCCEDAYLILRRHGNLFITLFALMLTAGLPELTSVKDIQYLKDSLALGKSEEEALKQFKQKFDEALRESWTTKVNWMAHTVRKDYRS
T1 sequence (P42336 whole entry): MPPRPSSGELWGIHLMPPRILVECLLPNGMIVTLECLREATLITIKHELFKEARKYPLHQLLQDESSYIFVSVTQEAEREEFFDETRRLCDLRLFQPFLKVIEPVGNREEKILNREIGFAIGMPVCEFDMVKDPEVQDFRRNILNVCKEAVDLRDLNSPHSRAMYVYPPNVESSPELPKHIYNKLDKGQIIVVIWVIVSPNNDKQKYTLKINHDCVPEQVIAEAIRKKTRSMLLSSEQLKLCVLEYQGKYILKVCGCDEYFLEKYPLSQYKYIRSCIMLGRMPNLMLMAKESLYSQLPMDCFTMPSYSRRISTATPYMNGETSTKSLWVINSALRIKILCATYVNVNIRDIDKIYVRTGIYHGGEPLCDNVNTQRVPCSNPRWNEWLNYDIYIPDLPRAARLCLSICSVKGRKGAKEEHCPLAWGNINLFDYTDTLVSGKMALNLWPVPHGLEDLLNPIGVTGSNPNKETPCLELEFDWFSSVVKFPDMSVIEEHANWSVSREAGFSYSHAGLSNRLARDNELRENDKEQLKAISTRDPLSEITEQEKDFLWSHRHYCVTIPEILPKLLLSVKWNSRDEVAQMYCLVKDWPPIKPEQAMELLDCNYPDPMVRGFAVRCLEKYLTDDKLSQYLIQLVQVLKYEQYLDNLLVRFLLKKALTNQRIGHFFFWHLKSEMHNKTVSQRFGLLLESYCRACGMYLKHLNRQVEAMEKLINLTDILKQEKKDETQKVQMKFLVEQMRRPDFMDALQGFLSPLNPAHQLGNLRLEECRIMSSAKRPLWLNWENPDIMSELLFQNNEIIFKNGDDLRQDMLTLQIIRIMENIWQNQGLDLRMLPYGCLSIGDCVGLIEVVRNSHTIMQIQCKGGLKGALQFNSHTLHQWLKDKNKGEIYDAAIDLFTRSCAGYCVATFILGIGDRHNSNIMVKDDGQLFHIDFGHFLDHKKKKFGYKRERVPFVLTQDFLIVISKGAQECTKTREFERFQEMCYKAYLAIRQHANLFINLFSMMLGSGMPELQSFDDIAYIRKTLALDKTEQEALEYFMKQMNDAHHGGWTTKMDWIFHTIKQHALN
T4 sequence (P48736 whole entry): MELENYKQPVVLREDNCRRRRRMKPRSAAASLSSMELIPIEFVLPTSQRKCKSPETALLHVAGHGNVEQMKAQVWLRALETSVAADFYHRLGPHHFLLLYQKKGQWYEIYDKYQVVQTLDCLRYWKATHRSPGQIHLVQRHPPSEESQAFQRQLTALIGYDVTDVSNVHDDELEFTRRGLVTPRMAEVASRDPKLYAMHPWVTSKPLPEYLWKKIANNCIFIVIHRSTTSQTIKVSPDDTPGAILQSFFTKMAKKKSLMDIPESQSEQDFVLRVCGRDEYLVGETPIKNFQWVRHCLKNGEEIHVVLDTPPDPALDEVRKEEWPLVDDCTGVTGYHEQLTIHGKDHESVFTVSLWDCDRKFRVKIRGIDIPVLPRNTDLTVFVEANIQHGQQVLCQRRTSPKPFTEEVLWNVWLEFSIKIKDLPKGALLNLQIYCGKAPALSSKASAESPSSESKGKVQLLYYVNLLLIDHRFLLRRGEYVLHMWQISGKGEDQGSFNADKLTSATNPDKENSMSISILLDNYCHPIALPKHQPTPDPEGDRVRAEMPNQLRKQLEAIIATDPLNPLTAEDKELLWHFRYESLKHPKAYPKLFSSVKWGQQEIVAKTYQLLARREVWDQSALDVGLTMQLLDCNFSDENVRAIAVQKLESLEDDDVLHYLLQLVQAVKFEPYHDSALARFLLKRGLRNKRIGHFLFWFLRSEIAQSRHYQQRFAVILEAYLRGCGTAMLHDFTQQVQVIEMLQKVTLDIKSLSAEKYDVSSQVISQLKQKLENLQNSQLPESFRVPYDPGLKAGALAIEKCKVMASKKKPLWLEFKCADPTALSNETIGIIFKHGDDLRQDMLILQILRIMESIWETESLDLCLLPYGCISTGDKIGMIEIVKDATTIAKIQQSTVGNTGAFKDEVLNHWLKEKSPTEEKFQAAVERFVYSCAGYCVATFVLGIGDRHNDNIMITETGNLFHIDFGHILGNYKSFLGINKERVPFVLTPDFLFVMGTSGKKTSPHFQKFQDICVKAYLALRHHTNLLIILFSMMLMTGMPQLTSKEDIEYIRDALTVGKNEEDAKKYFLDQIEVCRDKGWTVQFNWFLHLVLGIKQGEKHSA

SMILES | inhibition at 0.5 µM [1, 2] | inhibition at 0.5 µM [1, 3] | Kd (PIK3Ca_h) | Kd (PIK3Cb_h) | Kd (PIK3Cd_h) | Kd (PIK3Cg_h)
CC(Nc1cc(F)cc(F)c1)c1cc(C(=O)N2CCC(N(C)C)C2)cn2c(=O)cc(N3CCOCC3)nc12 (stereo not drawn) [Compound 48, 9-(1-((3,5-difluorophenyl)amino)ethyl)-7-(3-(dimethylamino)pyrrolidine-1-carbonyl)-2-morpholino-4H-pyrido[1,2-a]pyrimidin-4-one] | 80 to 90% | 80 to 90% | 130 nM | 0.26 nM | 40 nM | 730 nM
C[C@@H]1CN(c2cc(=O)c3cc(C(=O)N(C)C)cc(CN4CCc5c(F)cc(F)cc54)c3o2)CCO1 [Compound 90, (R)-8-((4,6-difluoroindolin-1-yl)methyl)-N,N-dimethyl-2-(2-methylmorpholino)-4-oxo-4H-chromene-6-carboxamide] | > 90% | > 90% | 3.2 nM | 0.075 nM | 1.5 nM | 87 nM
C[C@@H]1CN(c2cc(=O)c3cc(C(=O)N(C)C)cc(CN4CCc5c(F)cccc54)c3o2)CCO1 [Compound 91, (R)-8-((4-fluoroindolin-1-yl)methyl)-N,N-dimethyl-2-(2-methylmorpholino)-4-oxo-4H-chromene-6-carboxamide] | > 90% | > 90% | 22 nM | 1 nM | 7.4 nM | 230 nM
